What was measured:
[1] = test system: corn; test: Example 1 field trial: corn silage quality after foliar RyzUp Smartgrass at V4; type: in vivo, Zea mays (corn); details: vs untreated Control; 3.2 g GA3/acre (8 g/ha) at V4
Method: (§1) Field trials were conducted at various locations. Portions of the field were treated with RyzUp® Smartgrass (40% (w/v) GA3 (available from Valent BioSciences Corporation), while other parts of the field were not treated. RyzUp® Smartgrass applications were limited to applications between V3 and V6, with spray volumes for foliar applications ranging from 10-25 gallons/acre.
(§2) Trials were harvested using commercial equipment at standard timings for corn silage. Both RyzUp® Smartgrass and untreated areas of the field were harvested separately in order to obtain biomass yield (ton/acre). Subsequently, the harvested plant material was used for producing silage.
(§3) Representative samples were taken for subsequent analysis. Forage was analyzed by standard methods to determine quality parameters including dry matter, crude protein, Acid Detergent Fiber (ADF), Neutral Detergent Fiber (NDF), and starch data. Calculations were included for moisture, adjusted crude protein, Total Digestible Nutrients (TDN), Net Energy for Lactation (NEL), Net Energy for Gain (NEG) and protein solubility. This information was then entered into the MILK 2006 University of Wisconsin Corn Silage evaluation system. Calculations of the milk production, energy content and digestibility per ton of corn biomass were carried out using a calculation method described in the following references: Schwab, E. C., and R. D. Shaver. (2001); b) Schwab, E C et al. (2003); and c) Undersander, D J et al., (1993)
Modern corn hybrid varieties were grown in a field trial. RyzUp® Smartgrass (40% GA3) was applied at V4 growth stage at a rate of 3.2 g GA^3/acre (8 g/ha). In this trial, silage quality data were analyzed for each variety and the means were used to calculate milk production (Table 1). Percent moisture, crude protein, ADF and NDF were decreased while TDN, starch, and milk production were increased.

[2] = test system: corn; test: Example 2 field trial: corn silage quality after RyzUp Smartgrass at V5 under drought stress; type: in vivo, Zea mays (corn); details: vs untreated Control, 6.4 g GA3/acre (16 g/ha) at V5
Method: as §1, §2, §3
Corn grown in a field trial was treated at the V5 stage with RyzUp® Smartgrass (GA3 (w/v) 40%) at a rate of 6.4 g GA^3/acre (16 g/ha). Treatments were made in a spray volume of 15 gallons of water per acre with added surfactant. The overall conditions of this trial were drought stress both before and following application.

[3] = test system: alfalfa; details: GA3 applications; cited from earlier work
[4] = test system: smooth bromegrass; details: GA3 applications; cited from earlier work

C=C1C[C@]23C[C@@]1(O)CC[C@H]2[C@@]12C=C[C@H](O)[C@@](C)(C(=O)O1)[C@H]2[C@@H]3C(=O)O [GA3, gibberellin 3]
% NDF, Percent Difference [1]: −2.7% | % Starch, Percent Difference [1]: +16.7% | % TDN, Percent Difference [1]: +1.2% | Milk (lbs/t), Percent Difference [1]: +2.6% | % NDF, Percent Difference [2]: −17.8% | % Starch, Percent Difference [2]: +55.4% | % TDN, Percent Difference [2]: +8% | dry weight [3]: dose-dependent increase | growth [3]: dose-dependent increase | in vitro digestible dry matter (IVDDM) [3]: decreased | dry weight [4]: dose-dependent increase | growth [4]: dose-dependent increase | in vitro digestible dry matter (IVDDM) [4]: decreased
